Assays:
Test in all cases: Western blot MAPK family degradation selectivity, MDA-MB-231 cells
Type in all cases: cell-based
Details in all cases: increasing concentrations
ERK2 = molecular target: T1, ERK2 (Homo sapiens, UniProt P28482)
T1 construct: with increasing concentrations of exemplary compound 50 and 46 in MDA-MB-231 cells; endogenous in cells; host or cells: MDA-MB-231
From the text: (§1) FIGS. 12A, 12B, and 12C. Characterization of MAPK family degradation selectivity (related to FIGS. 9A, 9B, 9C, 13A, 13B, 13C, and 13D). (A) p38 MAPK family members (α, β, δ, γ) were aligned using the T-Coffee multiple sequence alignment server. Output results were then colored according to conservation (dark turquoise) and identity (lighter shades of turquoise) in Jalview. (B) Table summarizing pairwise sequence alignments (obtained in Jalview) and structural alignments for Ca atoms (obtained in PyMOL) using the doublyphosphorylated (pTGpY) active conformations of p38δ (PDB: 4MYG), p38α (PDB: 3PY3), and p38γ (PDB: 1CM8). No active conformation crystal structure of p38β currently exists. […] MAPK families are also divided based on their phosphorylation lip motif, (pTxpY). Note: JNK1 and JNK2 are expressed as two alternatively-spliced forms. JNK3 was not expressed in these cells.
(§2) To address the mechanistic questions surrounding PROTAC substrate specificity was assessed by synthesizing eight foretinib-based PROTACs that vary by linker length and by orientation of the VHL-recruiting molecule. PROTACs 1 and 48-50 (termed the ‘amide series’) were constructed using the previously-characterized “left-hand side” amide as a connection point for linker attachment to the VHL ligand, while PROTACs 5 and 45-47 (termed the ‘phenyl series’) incorporated an under-explored “right-hand side” phenyl ring attachment point of the linker to the VHL ligand (FIGS. 9A and 9B). […] PROTACs synthesized with different linker lengths, using two different points of attachment to the VHL-recruiting ligand promote distinct E3 ligase interfaces with a given p38 isoform, thereby enabling potential degradation selectivity. Indeed, this strategy of differential orientation of recruited VHL coupled with different PROTAC linker lengths enabled the identification of two PROTACs that each selectively degrade only a single p38 MAPK isoform in MDA-MB-231 cells (FIG. 9C). The examplary compound 50 and exemplary compound 46 result in potent and selective degradation of p38α and p38δ, respectively, without an observable “hook effect” within the tested dose range. […] Crucially, the DC50 for exemplary compound 50 on p38δ is >5 μM, as is the DC50 of exemplary compound 46 for p38α. Additionally, neither exemplary PROTAC degrades either of the two remaining p38 MAPK isoforms (β and γ), despite high sequence and structural conservation.
(§3) Lysates from MDA-MB-231 cells were washed once with ice cold PBS (1×), followed by lysis in buffer containing 25 mM Tris [pH 7.5], 0.25% sodium deoxycholate, 1% Triton X-100, supplemented with 1× protease inhibitor cocktail (Roche) and phosphatase inhibitors (10 mM NaF, 1 mM Na3VO4, and 20 mM β-glycerophosphate), unless otherwise noted. Lysates were spun at 14,000×g for 10 minutes at 4° C. and supernatant was evaluated for protein content using a Pierce BCA Protein Assay (Thermo Fisher Scientific). 25 to 50 μg of protein was loaded onto 10% SDS-PAGE gels or 4-20% Criterion TGX precast gradient gels (Bio-Rad), transferred to nitrocellulose membranes, and probed with the specified antibodies overnight at 4° C. in 1×TBS-Tween (Tris buffered saline plus 0.02% Tween 20) containing 5% non-fat milk. Immunoblots were visualized using a Bio-Rad ChemiDoc imaging instrument and subsequently processed and quantified using the accompanying Bio-Rad ImageLab software.

JNK2 = test system: JNK2
From the text: as §1, §2, §3

p38γ = molecular target: T2, p38γ (Homo sapiens, UniProt P53778)
T2 construct: with increasing concentrations of exemplary compound 50 and 46 in MDA-MB-231 cells; endogenous in cells; host or cells: MDA-MB-231
From the text: as §1, §2, §3

JNK1 = test system: JNK1
From the text: as §1, §2, §3

p38β = molecular target: T3, p38β (Homo sapiens, UniProt Q15759)
T3 construct: with increasing concentrations of exemplary compound 50 and 46 in MDA-MB-231 cells; endogenous in cells; host or cells: MDA-MB-231
From the text: as §1, §2, §3

ERK1 = molecular target: T4, ERK1 (Homo sapiens, UniProt P27361)
T4 construct: with increasing concentrations of exemplary compound 50 and 46 in MDA-MB-231 cells; endogenous in cells; host or cells: MDA-MB-231
From the text: as §1, §2, §3

T2 sequence (P53778 whole entry): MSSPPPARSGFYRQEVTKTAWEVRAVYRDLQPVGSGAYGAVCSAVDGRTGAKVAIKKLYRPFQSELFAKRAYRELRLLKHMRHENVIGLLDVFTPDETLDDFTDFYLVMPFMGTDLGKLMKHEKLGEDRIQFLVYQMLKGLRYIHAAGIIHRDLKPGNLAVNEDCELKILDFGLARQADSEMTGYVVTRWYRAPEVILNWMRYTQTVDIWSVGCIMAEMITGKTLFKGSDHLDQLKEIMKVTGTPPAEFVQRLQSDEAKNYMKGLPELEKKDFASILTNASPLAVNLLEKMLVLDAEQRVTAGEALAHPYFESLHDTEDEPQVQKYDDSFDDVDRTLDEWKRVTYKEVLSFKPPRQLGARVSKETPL
T4 sequence (P27361 whole entry): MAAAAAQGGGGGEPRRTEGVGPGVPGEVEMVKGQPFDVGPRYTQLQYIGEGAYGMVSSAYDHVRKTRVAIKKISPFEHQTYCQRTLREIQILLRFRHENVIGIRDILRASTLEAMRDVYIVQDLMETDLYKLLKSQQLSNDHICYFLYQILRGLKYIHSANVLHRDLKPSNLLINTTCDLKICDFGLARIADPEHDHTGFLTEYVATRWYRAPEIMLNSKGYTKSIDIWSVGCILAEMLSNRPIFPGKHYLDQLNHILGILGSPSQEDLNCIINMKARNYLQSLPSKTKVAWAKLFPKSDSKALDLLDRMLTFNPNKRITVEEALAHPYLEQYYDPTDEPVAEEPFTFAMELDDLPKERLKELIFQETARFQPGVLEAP
T3 sequence (Q15759 whole entry): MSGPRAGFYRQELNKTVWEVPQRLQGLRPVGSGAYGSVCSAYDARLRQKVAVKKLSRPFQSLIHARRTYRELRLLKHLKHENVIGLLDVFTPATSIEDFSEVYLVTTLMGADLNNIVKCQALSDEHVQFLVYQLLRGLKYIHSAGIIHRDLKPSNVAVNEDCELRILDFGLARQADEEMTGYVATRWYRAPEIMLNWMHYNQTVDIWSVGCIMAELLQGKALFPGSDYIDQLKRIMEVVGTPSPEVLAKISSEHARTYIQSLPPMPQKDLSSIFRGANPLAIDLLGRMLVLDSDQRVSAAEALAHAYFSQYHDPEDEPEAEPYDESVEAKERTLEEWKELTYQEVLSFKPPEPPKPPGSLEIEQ
T1 sequence (P28482 whole entry): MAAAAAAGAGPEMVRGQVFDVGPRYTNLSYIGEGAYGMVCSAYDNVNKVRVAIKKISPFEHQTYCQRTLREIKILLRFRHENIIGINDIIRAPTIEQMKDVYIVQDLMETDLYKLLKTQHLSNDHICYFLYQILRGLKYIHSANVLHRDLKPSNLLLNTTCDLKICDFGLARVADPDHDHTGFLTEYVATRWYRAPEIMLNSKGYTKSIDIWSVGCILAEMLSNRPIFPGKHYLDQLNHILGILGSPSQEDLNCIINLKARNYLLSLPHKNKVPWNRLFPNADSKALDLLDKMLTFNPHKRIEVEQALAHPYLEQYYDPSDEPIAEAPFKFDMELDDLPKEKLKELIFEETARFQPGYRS

COc1cc2c(Oc3ccc(NC(=O)C4(C(=O)Nc5ccc(F)cc5)CC4)cc3F)ccnc2cc1OCCOCCOCCOc1cc(-c2scnc2C)ccc1CNC(=O)[C@@H]1C[C@@H](O)CN1C(=O)[C@H](C(C)C)N1Cc2ccccc2C1=O [compound 46]
lack of degradation: degradation of ERK2 (ERK2) | degradation of JNK2 (JNK2) | degradation of p38γ (p38γ) | degradation of JNK1 (JNK1) | degradation of p38β (p38β) | degradation of ERK1 (ERK1)

COc1cc2c(Oc3ccc(NC(=O)C4(C(=O)Nc5ccc(F)cc5)CC4)cc3F)ccnc2cc1OCCCCOCCCCOCC(=O)N[C@H](C(=O)N1C[C@H](O)C[C@H]1C(=O)NCc1ccc(-c2scnc2C)cc1)C(C)(C)C [compound 50, N-(3-fluoro-4-((7-(4-(4-(2-(((S)-1-((2S,4R)-4-hydroxy-2-((4-(4-methylthiazol-5-yl)benzyl)carbamoyl)pyrrolidin-1-yl)-3,3-dimethyl-1-oxobutan-2-yl)amino)-2-oxoethoxy)butoxy)buto-xy)-6-methoxyquinolin-4-yl)oxy)phenyl)-N-(4-fluorophenyl)cyclopropane-1,1-dicarboxa-mide]
lack of degradation: degradation of ERK2 (ERK2) | degradation of JNK2 (JNK2) | degradation of p38γ (p38γ) | degradation of JNK1 (JNK1) | degradation of p38β (p38β) | degradation of ERK1 (ERK1)

Source: patent US20180353501A1 (Arvinas, Inc., priority 2017, published 2018)
